Measured values reported in BindingDB's records for doi:10.1074/jbc.M111.292243 (University of Copenhagen, 2012).

How the values were obtained:
Assay in all cases: Radioligand Competition Assay
[1] = target: Neuronal acetylcholine receptor subunit alpha-7 (Rattus norvegicus, UniProt Q05941)
[2] = target: Neuronal acetylcholine receptor subunit alpha-4 (Rattus norvegicus, UniProt P09483)
[3] = target: Acetylcholine-binding protein (Lymnaea stagnalis, UniProt P58154)
Chain of Acetylcholine-binding protein (P58154 whole entry): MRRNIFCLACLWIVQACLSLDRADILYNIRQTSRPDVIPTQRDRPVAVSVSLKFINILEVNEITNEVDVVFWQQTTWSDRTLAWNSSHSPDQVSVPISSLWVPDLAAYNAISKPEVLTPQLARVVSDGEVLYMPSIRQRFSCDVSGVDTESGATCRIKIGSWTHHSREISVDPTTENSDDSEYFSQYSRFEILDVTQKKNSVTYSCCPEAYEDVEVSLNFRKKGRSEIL

Chain of Neuronal acetylcholine receptor subunit alpha-4 (P09483 whole entry): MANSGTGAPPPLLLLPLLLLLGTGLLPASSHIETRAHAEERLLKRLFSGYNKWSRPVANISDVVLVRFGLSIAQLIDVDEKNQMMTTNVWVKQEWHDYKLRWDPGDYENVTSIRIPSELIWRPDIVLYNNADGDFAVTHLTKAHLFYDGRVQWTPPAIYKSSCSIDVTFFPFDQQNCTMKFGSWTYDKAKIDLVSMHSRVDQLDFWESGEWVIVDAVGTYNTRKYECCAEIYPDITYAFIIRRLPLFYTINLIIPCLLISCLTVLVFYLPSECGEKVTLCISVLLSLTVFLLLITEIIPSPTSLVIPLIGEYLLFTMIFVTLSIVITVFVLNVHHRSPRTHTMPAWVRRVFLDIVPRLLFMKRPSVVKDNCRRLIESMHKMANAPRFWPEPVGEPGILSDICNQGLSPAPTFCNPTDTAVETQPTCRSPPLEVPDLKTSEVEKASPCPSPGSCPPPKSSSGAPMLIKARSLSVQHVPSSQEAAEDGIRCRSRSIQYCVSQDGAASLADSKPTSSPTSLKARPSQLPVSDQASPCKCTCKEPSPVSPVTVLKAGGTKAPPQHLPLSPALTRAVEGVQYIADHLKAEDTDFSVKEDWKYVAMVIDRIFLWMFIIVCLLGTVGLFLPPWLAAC
Chain of Neuronal acetylcholine receptor subunit alpha-7 (Q05941 whole entry): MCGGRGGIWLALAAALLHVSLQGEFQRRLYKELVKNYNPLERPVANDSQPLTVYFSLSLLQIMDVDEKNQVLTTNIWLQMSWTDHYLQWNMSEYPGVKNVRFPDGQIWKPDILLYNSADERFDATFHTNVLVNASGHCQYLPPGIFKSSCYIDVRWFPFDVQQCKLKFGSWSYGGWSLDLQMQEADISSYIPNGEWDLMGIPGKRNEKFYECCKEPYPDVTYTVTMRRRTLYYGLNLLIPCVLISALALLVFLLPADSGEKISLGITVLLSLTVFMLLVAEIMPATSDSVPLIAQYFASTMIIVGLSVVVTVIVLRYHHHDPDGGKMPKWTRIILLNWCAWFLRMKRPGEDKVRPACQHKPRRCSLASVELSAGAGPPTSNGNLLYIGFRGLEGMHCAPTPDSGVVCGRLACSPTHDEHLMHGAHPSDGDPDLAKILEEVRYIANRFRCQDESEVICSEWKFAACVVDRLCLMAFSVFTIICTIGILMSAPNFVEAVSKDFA

Row | SMILES | Ki [1] [nM] | Ki [2] [nM] | Ki [3] [nM]
1 | c1ccc(-c2cncc(N3CCCNCC3)c2)cc1 | > 10000 | 0.8 | 
2 | c1cncc(N2CCCNCC2)c1 | 136 | 0.72 | 
3 | CCOc1cc(N2CCCNCC2)cnc1Br | 847 | 0.25 | 
4 | Clc1ccc([C@H]2C[C@@H]3CC[C@H]2N3)cn1 |  |  | 0.097
5 | O=c1cccc2n1CC1CNCC2C1 (stereo not given) [CAS_485-35-8] | 295 | 0.95 | 8.2
6 | CCOc1cncc(N2CCCNCC2)c1 [NS3573, 2] | 9970 | 0.62 | 2.2
7 | Brc1ccc(N2CCCNCC2)cn1 [NS3920, 4] | 190 | 0.32 | 
